Reference: US20150297573A1, “TPL2 KINASE INHIBITORS FOR PREVENTING OR TREATING DIABETES AND FOR PROMOTING Beta-CELL SURVIVAL” (INSERM (Institut National De La Santé Et De La Recherche …, priority 2012, published 2015)
Read-outs that look alike come from different tables or passages of the source.

Assays:
[1] = test system: MEK, MK2, Src, protein kinase C, and EGF receptor; details: cited from earlier work
INS-1E cells [2] = details: Tpl2 inhibitor 5 μM, 24 h in conditioned medium of LPS-activated RAW264.7
Method: RAW264.7 macrophages were maintained in DMEM containing 5% (vol/vol) heat-inactivated fetal bovine serum and antibiotics at 37° C. and 5% CO2/95% air atmosphere. RAW264.7 macrophages were incubated for 24 h with LPS (Lipopolysaccharide) (0.5 ng/ml), and the resulting conditioned medium was transferred onto INS-1E cells treated with or without Tpl2 inhibitor (5 μM). Lysates were subjected to Western blotting with antibodies against cleaved caspase-3 (1:1000), or HSP90 (1:1000). […] Data are expressed as ratio of cleaved caspase-3 on HSP90 protein amount, and as fold of cleaved caspase-3 over basal in cells in control culture medium without Tpl2 inhibitor treatment.

INS-1E cells [3] = assay: Apoptosis of INS-1E cells (cleaved caspase-3 and cleaved PARP, Western blotting)
Method: FIG. 5: Apoptotic effects of inflammatory cytokines in INS-1E cells and in mouse pancreatic islets under Tpl2 inhibition. A and C: INS-1E β-cells were treated in RPMI medium containing BSA 0.5% (A) or 7.5% SVF (C) with or without Tpl2 inhibitor (3 μM) during 2 h and then stimulated or not with Tpl2 inhibitor (3 μM) and IL-1β alone (20 ng/ml) for 48 h (A) or the cytokine mixture (IL-1β (0.2 μg/ml), TNFα (50 ng/ml), and IFNγ (30 ng/ml) for 24 h (C). Lysates were subjected to Western blotting with antibodies against cleaved caspase-3 (1:1000), total and cleaved PARP (1:1000) or β-actin (1:5000). Quantification of four to ten independent experiments is shown. Data are expressed as ratio of cleaved caspase-3 or cleaved PARP on β-actin protein amounts, and as fold of these proteins over basal in cells without treatment. Data are presented as the means±SEM. *P<0.05, **P<0.01, and ***P<0.001 vs stimulus effect in control cells. B: INS-1E β-cells were stimulated or not in RPMI medium containing SVF 7.5% with each cytokine alone or a mixture of the three (IL-1β (0.2 ng/ml), TNFα (50 ng/ml), or IFNγ(30 ng/ml) for 24 h. Lysates were subjected to Western blotting with antibodies against cleaved caspase-3 (1:1000) or β-actin (1:5000). Dotted line represents 100% of caspase-3 amount from untreated control cells. Quantification of four independent experiments is shown. Data are expressed as a percentage of cleaved caspase-3 protein amount in untreated cells (caspase-3/β-actin protein amount ratio). Data are presented as the means±SEM. *P<0.05, **P<0.01, and ***P<0.001 vs untreated control cells.

p90RSK [4] = assay: p90RSK phosphorylation in INS-1E β-cells (Western blotting); type: cell-based, rat; details: INS-1E cells, Tpl2 inhibitor 3 μM
Method: (§1) Quantification of three to five experiments is shown.
(§2) The rat β-cell line INS-1E was provided by Dr. Maechler (Department of Cell Physiology and Metabolism, Faculty of Medicine, University of Geneva, Geneva, Switzerland). Cells (passages 60-95) were maintained in culture as monolayer at 37° C. in humidified atmosphere with 5% CO2, using RPMI 1640 medium containing 11.1 mM glucose, and supplemented with 7.5% heat-inactivated FCS, 1 mM sodium pyruvate, 10 mM HEPES, 2 mM glutamine, 50 μM β-mercaptoethanol, 100 U/ml penicillin, and 100 μg/ml streptomycin. Experiments were performed in INS-1E cells at ˜70% confluence in 6-well plates.
(§3) Tpl2 expression was specifically silenced in INS-1E cells using a validated set of 4 different 19-nucleotides siRNA duplexes (“ON-TARGETplus SMARTpool”, L-091828-01-0005) purchased from Dharmacon (ABgene Ltd, part of Thermo Fisher Scientific, Waltham, Mass.). […] Briefly, groups of 500,000 INS-1E cells were maintained in culture in the absence of penicillin and streptomycin for 24 h before being transfected with 40 nM siRNA-Lipofectamine™ 2000 complexes prepared in Opti-MEM medium at a 2:1 ratio. Medium was replaced 6 h after transfection with fresh antibiotic-free RPMI medium supplemented with 7.5% heat-inactivated FCS. […] The transfection efficiency was assessed using the “siGLO Green Transfection Indicator”. […]

p38 = p38 phosphorylation in INS-1E β-cells (Western blotting); type: cell-based, rat; details: INS-1E cells
Method: as §1
Tpl2 expression was specifically silenced in INS-1E cells using a validated set of 4 different 19-nucleotides siRNA duplexes (“ON-TARGETplus SMARTpool”, L-091828-01-0005) purchased from Dharmacon (ABgene Ltd, part of Thermo Fisher Scientific, Waltham, Mass.). […] Briefly, groups of 500,000 INS-1E cells were maintained in culture in the absence of penicillin and streptomycin for 24 h before being transfected with 40 nM siRNA-Lipofectamine™ 2000 complexes prepared in Opti-MEM medium at a 2:1 ratio. Medium was replaced 6 h after transfection with fresh antibiotic-free RPMI medium supplemented with 7.5% heat-inactivated FCS. A second transfection was performed 24 h after the first one to improve the transfection efficiency. The transfection efficiency was assessed using the “siGLO Green Transfection Indicator”. All assays were performed at least 50 h after the first transfection.
Proteins were visualized by enhanced chemiluminescence detection.

ERK1/2 [5] = details: islets from C57BL/6 mice; Tpl2 inhibitor 3 μM; cytokine mix 20 min
Method: (§4) 2D and 3B: 72 h after the first 40 nM siRNA transfection, INS-1E cells were treated or not, as described above. Phosphorylation and total protein amount were analyzed by Western blotting as described above. […] Data are expressed as ratio of phosphorylated on total protein amount and as fold of phosphorylation over basal in cells without treatment.

p90RSK [6] = details: islets from C57BL/6 mice; Tpl2 inhibitor 3 μM; cytokine mix 20 min
Method: as §4

[7] = test system: p46/p54 c-Jun N-terminal kinases (JNK); details: INS-1E cells
Method: as §4

human pancreatic islets = assay: Glucose-stimulated insulin secretion (stimulation index) of human islets exposed to cytokines; type: cell-based; details: Tpl2 inhibitor 3 μM, cytokine mix 72 h, stimulation index 20 mM/2.8 mM glucose
Method: Human islets were treated in RPMI medium containing 0.2% human albumin with or without Tpl2 inhibitor (3 μM) and/or Exendin-4 (20 nM) during 2 h and then stimulated or not with Tpl2 inhibitor (3 μM), Exendin-4 (20 nM) and/or a cytokine mixture (IL-1β (1000 U/ml), TNF-α (1000 U/ml) and IFN-γ (1000 U/ml) for 72 h, and then submitted to a glucose-response test in KRB buffer. The stimulation index is defined as the ratio of stimulated (20 mM glucose) to basal (2.8 mM glucose) insulin secretion. Each column represents the mean±SEM of 5 replicates (each replicate corresponds to islets from one human donor). *P<0.05, **P<0.01, and ***P<0.001 vs cytokine effect in control cells.
INS-1E cells, mouse (5-10 islets per condition) or human islets (500-2000 IEQ per condition) were preincubated at 37° C. during 2 h with or without Tpl2 inhibitor (3 μM) and Exendin-4 (20 nM), and then incubated for different times (0, 8, 16, 24, 36, 48 or 72 h) with or without Tpl2-inhibitor (3 μM), IL-1β alone (10000 U/ml, 20 μg/ml), a cytokine mix (IL-1β (100 U/ml, 0.2 ng/ml), TNF-α (500 U/ml, 50 ng/ml), and IFN-γ (100 U/ml, 30 ng/ml) for INS-1E cells and mouse islets; and IL-1β (1000 U/ml, 2 ng/ml), TNF-α (1000 U/ml, 28 ng/ml) and IFN-γ (1000 U/ml, 833 ng/ml) for human islets), and/or Exendin-4 (20 nM). […]

ERK1/2 [8] = assay: ERK1/2 phosphorylation in INS-1E β-cells (Western blotting); type: cell-based, rat; details: INS-1E cells, Tpl2 inhibitor 3 μM
Method: as §1, §2, §3

db/db mice = test system: db/db mice
Method: FIG. 8: Effect of in vivo inhibition of Tpl2 on initial and body weights. Five-week-old db/db mice were obtained from Janvier Ltd and fed with a standard diet (4% fat) all over the study. All mice had free access to food and fresh water and were kept on a 12 h-day/12 h-night cycle. Body weights were recorded until the day of sacrifice prior to intraperitoneal (ip) administration of glucose, insulin or the daily injection of 2.5 mg/kg Tpl2 inhibitor or of the corresponding vehicle.
FIG. 9: Effect of in vivo inhibition of Tpl2 on fasting glucose and plasma insulin levels. Five-week-old db/db mice were obtained from Janvier Ltd and fed with a standard diet (4% fat) all over the study. All mice had free access to food and fresh water and were kept on a 12 h-day/12 h-night cycle. Fast and blood glucose concentrations were determined with a (Verio Onetouch, Lifescan, Johnson and Johnson Company) glucometer using blood sampled from the tail vein on mice receiving daily injection of 2.5 mg/kg Tpl2 inhibitor or of the corresponding vehicle. Serum insulin levels were quantified by radioimmunoassay (RIA rat insulin kit, Millipore) using blood sampled from the tail vein on the first day of the study or jugular arteries the day of the sacrifice.
(§5) FIG. 10: Effect of in vivo inhibition of Tpl2 on glucose tolerance and insulin tolerance. Five-week-old db/db mice were obtained from Janvier Ltd and fed with a standard diet (4% fat) all over the study. All mice had free access to food and fresh water and were kept on a 12 h-day/12 h-night cycle. Mice received daily injection of 2.5 mg/kg Tpl2 inhibitor or of the corresponding vehicle. Glucose tolerance tests were performed by ip administration of 1-2 g/kg glucose after a 16 h overnight fast and blood glucose concentrations were determined with a (Verio Onetouch, Lifescan, Johnson and Johnson Company) glucometer using blood sampled from the tail vein. Insulin tolerance tests were carried out in a similar manner following the ip administration of 0.75 U insulin per kg body weight to non-fasted mice.
as §5, with “Five-week-old” for “FIG. 10: Effect of in vivo inhibition of Tpl2 on glucose tolerance and insulin tolerance. Five-week-old”, “Body weights were recorded until the day of sacrifice prior to intraperitoneal (ip) administration of glucose, insulin or the” for “Mice received”, “mice. Serum insulin levels were quantified by radioimmunoassay (RIA rat insulin kit, Millipore) using blood sampled from the tail vein on the first day of the study or jugular arteries the day of the sacrifice.” for “mice.”
The progressive development of type 2 diabetes as observed in db/db mice is associated with increased body weight, insulin resistance, hyperglycemia and impaired glucose tolerance.

isolated mouse islets = details: Tpl2 inhibitor 3 μM, cytokine mix 24 h
Method: D: Isolated mouse islets were stimulated or not with a cytokine mix (IL-1β (1000 U/ml), TNF-α (1000 U/ml) and IFN-γ (1000 U/ml)) in RPMI medium for 24 h. The caspase-3/7 activity was measured using the “Caspase-Glo® 3/7 Assay”.
Pancreatic islets were isolated from male 10- to 12-weeks-old C57BL/6 mice following the injection of approximately 2 ml of 1 mg/ml collagenase XI through the bile duct. The pancreases were then removed, incubated under agitation at 37° C. for 9 minutes to complete the digestion and the islets were separated from the exocrine pancreatic tissue using a Histopaque-1077 gradient. The islets were then washed in cold PBS supplemented with 1.2 mM CaCl2, 1 mM MgCl2, and 5.6 mM glucose, handpicked under microscope, separated in groups composed of 200-300 islets and maintained in culture at 37° C. (95% air and 5% CO2) in RPMI 1640 containing 11.1 mM glucose and supplemented with 10% FCS, 2 mM glutamine, 100 units/ml penicillin and 100 μg/ml streptomycin for at least 24 h before being used.

ERK1/2 [9] = details: human islets; Tpl2 inhibitor 3 μM 2 h; cytokine mix 20 min
Method: Human islets were isolated, cultured 24-72 h for recovery in CMRL medium containing 10% SVF, treated with KRBH buffer with or without Tpl2 inhibitor (3 μM) during 2 h and then stimulated or not with a cytokine mix (IL-1β (100 U/ml), TNF-α (500 U/ml), and IFNγ(100 U/ml)) for 20 min. Lysates were subjected to western blot analysis with antibodies against phosphorylated ERK1/2 (1:1000) or β-actin (1:2000). […] Data are expressed as ratio of phosphorylated ERK2 on β-actin amount and as a fold increase over basal in islets without treatment. Data are expressed as the means±SEM. *P<0.05, vs stimulus effect in control cells.
Human pancreases were harvested from five brain-dead non-obese non-diabetic donors in agreement with the French Agence de la Biomedecine and the local Institutional Ethical Committee. […]
Human islets were isolated, cultured 24-72 h for recovery in CMRL medium containing 10% SVF, treated with KRBH buffer with or without Tpl2 inhibitor (3 μM) during 2 h and then stimulated or not with a cytokine mix (IL-1β (100 U/ml), TNF-α (500 U/ml), and IFNγ (100 U/ml)) for 20 min. […] Data are expressed as ratio of phosphorylated ERK2 on b-actin amount and as a fold increase over basal in islets without treatment. Data are expressed as the means±SEM. *P<0.05, vs stimulus effect in control cells.

[10] = INS-1E cells, Tpl2 inhibitor 3 μM, IL-1β 20 ng/ml 48 h
[11] = INS-1E cells, Tpl2 inhibitor 3 μM, cytokine mix 24 h

## N#Cc1cnc2cnc(NCc3cccnc3)cc2c1Nc1ccc(F)c(Cl)c1 [Tpl2 inhibitor, 4-(3-Chloro-4-fluorophenylamino)-6-(pyridine-3-yl-methylamino)-3-cyano-[1,7]napthyridine]
[1]; concentration <5 μM that prevents activation of the ERK1/2 cascade
  inhibition or activation of other protein kinases: No other protein kinase has been found to be inhibited or activated
[1]; concentrations below 5 μM
  selectivity over other related kinases (MEK, MK2, Src, protein kinase C, EGF receptor): significant selectivity
INS-1E cells [2]
  decrease of cleaved caspase-3 induced by macrophage conditioned medium: around 55%
INS-1E cells [3]; [10]
  decrease in cleaved PARP level induced by IL-1β: ~30%
  decrease in cleaved caspase-3 level induced by IL-1β: ~45%
INS-1E cells [3]; [11]
  decrease in cleaved PARP level induced by the mixture of cytokines: ~25%
  decrease in cleaved caspase-3 level induced by the mixture of cytokines: ~30%
INS-1E cells [3]; long term treatment, 3 μM, no cytokine
  INS-1E cell apoptosis with Tpl2 inhibitor alone: did not increase
p90RSK [4]; IL-1β 20 ng/ml 20 min, same extent as ERK1/2 (60%)
  inhibition of IL-1β-induced p90RSK phosphorylation: inhibited to the same extent
p90RSK [4]; cytokine mix 20 min, same extent as ERK1/2 (50-60%)
  inhibition of cytokine-induced p90RSK phosphorylation: inhibited to the same extent
p38; 3 μM
  effect on IL-1β-induced p38 phosphorylation: no effect
p38; 10 μM (data not shown)
  effect on IL-1β-induced p38 phosphorylation: no effect
ERK1/2 [5]
  inhibition of cytokine-stimulated ERK1/2 phosphorylation: efficient at inhibiting
p90RSK [6]
  inhibition of cytokine-stimulated p90RSK phosphorylation: efficient at inhibiting
[7]; 3 μM
  effect on IL-1β-induced p46/p54 JNK phosphorylation: no effect
[7]; 10 μM (data not shown)
  effect on IL-1β-induced p46/p54 JNK phosphorylation: no effect
Human pancreatic islets
  prevention of cytokine-induced insulin secretion failure: ~50%
ERK1/2 [8]; 2 h, IL-1β 20 ng/ml 20 min
  suppression of IL-1β-induced ERK1/2 phosphorylation: 60%
ERK1/2 [8]; cytokine mix IL-1β+TNF-α+IFN-γ 20 min
  suppression of cytokine-induced ERK1/2 phosphorylation: 50-60%
db/db mice; 2.5 mg/kg daily ip, 2 weeks
  body weights vs vehicle-treated db/db mice: not different
db/db mice; 2.5 mg/kg daily ip, after 7 days
  tolerance to glucose challenges: significantly improved
db/db mice; 2.5 mg/kg daily ip, after 14 days
  insulin sensitivity (insulin tolerance test): significant improvement
db/db mice; 2.5 mg/kg daily ip, day 14, vehicle 11.3±1.2
  serum insulin level at fast: 4.3 ± 0.4 ng/mL
db/db mice; 2.5 mg/kg daily ip, day 14, vehicle 258.6±40.7
  blood glucose concentration at fast: 144.0 ± 15.5 mg/dL
db/db mice; daily ip 2.5 mg/kg, 2 weeks
  toxicity: not toxic
Isolated mouse islets
  decrease of caspase-3/7 activity induced by the mixture of cytokines: ~50%
ERK1/2 [9]
  inhibition of phosphorylation/activation of ERK1/2 induced by the cytokine mixture: significantly efficient at inhibiting
